The source of these data is patent US20160355530A1, “HEPATITIS C INHIBITORS AND USES THEREOF” (AbbVie Inc., priority 2010, published 2016).

Like-named read-outs stand apart in the source and are kept apart here.

The test system of assay [1] is HCV 1b-BB7 subgenomic replicon. Description: microbe, parasite or virus in culture. It is filed as cell-based, HCV genotype 1b. As to conditions: Hepatitis C virus, stable replicon.
Assay [2] deals with HCV 1a-H77 subgenomic replicon. Description: microbe, parasite or virus in culture. The class given is cell-based, HCV genotype 1a. To be noted: Hepatitis C virus, stable replicon.
For assay [3], the target named is T1, HCV NS5B polymerase 1a-H77-C316Y (Hepatitis C virus genotype 1a, UniProt P27958, C2736Y).
T1 construct: six-histidine tag; made in house; host or cells: E. coli
Description: biochemical. Also noted: species or system HCV genotype 1a. The method, boiled down:
(§1)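 E. coli-expressed NS5B (residues 1-570, His-tagged) transcribed a 2.1 kb HCV 1b negative-strand 3′-end RNA template (5 nM) with 20 μM CTP, 20 μM ATP and 0.284 μM [3H]UTP for 3 h at 30° C. Spermine-precipitated RNA was filter-captured and counted by scintillation; IC50 from nonlinear regression.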

In assay [4] the test system is HCV NS5B polymerase 1a-H77-C316Y. The assay is described as follows: biochemical. Also noted: species or system HCV genotype 1a. To be noted: ratio of enzyme IC50s, 1a H77-C316Y / 1a H77. In a few lines: as §1
The target of assay [5] is T2, HCV NS5B polymerase 1a-H77 (Hepatitis C virus genotype 1a, UniProt P27958).
T2 construct: six-histidine tag; made in house; host or cells: E. coli
The assay is described as follows: biochemical. The arrangement: species or system HCV genotype 1a. As to conditions: enzyme, strain 1a H77; read-out: HCV Polymerase Strain 1a H77 IC50. The method, boiled down: as §1

Assay [6] deals with chimeric replicon with genotype 3a NS5B. Description: microbe, parasite or virus in culture. The class given is cell-based, HCV genotype 3a. To be noted: Hepatitis C virus, read-out: 3a chimera 5% FBS EC50.
Assay [7] relates to chimeric replicon with 2a-J6CF-derived NS5B. The assay is described as follows: microbe, parasite or virus in culture. It is filed as cell-based, HCV genotype 2a. To be noted: Hepatitis C virus, read-out: 2a chimera 5% FBS EC50.
The target of assay [8] is T3, HCV NS5B polymerase 1b BK strain (Hepatitis C virus genotype 1b, UniProt P26663).
T3 construct: six-histidine tag; made in house; host or cells: E. coli
The assay is described as follows: HCV NS5B polymerase enzymatic inhibition assay, strain 1b BK. It is filed as biochemical. As to conditions: enzyme, strain 1b BK; read-out: HCV Polymerase Strain 1b BK IC50. In a few lines:
as §1

Assay [9] has as its system chimeric replicon with genotype 2b NS5B. Description: microbe, parasite or virus in culture. It is filed as cell-based, HCV genotype 2b. As to conditions: Hepatitis C virus, read-out: 2b chimera 5% FBS EC50.
The subject of assay [10] is chimeric replicon with genotype 4a NS5B. Description: microbe, parasite or virus in culture. The class given is cell-based, HCV genotype 4a. As to conditions: Hepatitis C virus, read-out: 4a chimera 5% FBS EC50.
Setting [11] is: strain 1b BB7, 5% FBS + 40% human plasma, read-out: 1b BB7 5% FBS + 40% Human Plasma EC50.
Setting [12] is: strain 1b BB7, 5% FBS, no human plasma, read-out: 1b BB7 5% FBS EC50.
[13] abbreviates: strain 1b BB7, 5% FBS, read-out: 1b BB7 5% FBS EC50.
Where [14] appears, read: 5% FBS, absence of human plasma, read-out: Stable Replicon 1a H77 5% FBS EC50.
The mark [15] stands for this setting: strain 1a H77, 5% FBS + 40% human plasma, read-out: 1a H77 5% FBS + 40% Human Plasma EC50.
Where [16] appears, read: strain 1a H77, 5% FBS, no human plasma, read-out: 1a H77 5% FBS EC50.
Setting [17] is: strain 1a H77, 5% FBS, read-out: 1a H77 5% FBS EC50.

T1 sequence (P27958 2421-2990 C2736Y): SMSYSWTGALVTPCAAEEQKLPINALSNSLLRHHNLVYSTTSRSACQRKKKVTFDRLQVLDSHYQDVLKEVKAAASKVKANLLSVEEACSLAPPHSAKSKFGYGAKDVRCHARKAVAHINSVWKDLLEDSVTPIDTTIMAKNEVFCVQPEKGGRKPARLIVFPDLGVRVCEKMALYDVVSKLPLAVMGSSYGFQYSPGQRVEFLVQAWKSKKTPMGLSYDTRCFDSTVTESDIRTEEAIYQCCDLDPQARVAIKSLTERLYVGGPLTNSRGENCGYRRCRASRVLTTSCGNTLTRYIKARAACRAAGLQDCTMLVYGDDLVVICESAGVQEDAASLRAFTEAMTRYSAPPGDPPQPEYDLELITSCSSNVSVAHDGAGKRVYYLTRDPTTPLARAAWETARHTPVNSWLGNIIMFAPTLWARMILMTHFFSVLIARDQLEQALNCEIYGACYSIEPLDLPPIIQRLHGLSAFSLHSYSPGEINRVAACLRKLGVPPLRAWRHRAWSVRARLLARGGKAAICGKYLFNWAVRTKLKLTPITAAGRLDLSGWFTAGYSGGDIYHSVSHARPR
T3 sequence (P26663 2420-2989): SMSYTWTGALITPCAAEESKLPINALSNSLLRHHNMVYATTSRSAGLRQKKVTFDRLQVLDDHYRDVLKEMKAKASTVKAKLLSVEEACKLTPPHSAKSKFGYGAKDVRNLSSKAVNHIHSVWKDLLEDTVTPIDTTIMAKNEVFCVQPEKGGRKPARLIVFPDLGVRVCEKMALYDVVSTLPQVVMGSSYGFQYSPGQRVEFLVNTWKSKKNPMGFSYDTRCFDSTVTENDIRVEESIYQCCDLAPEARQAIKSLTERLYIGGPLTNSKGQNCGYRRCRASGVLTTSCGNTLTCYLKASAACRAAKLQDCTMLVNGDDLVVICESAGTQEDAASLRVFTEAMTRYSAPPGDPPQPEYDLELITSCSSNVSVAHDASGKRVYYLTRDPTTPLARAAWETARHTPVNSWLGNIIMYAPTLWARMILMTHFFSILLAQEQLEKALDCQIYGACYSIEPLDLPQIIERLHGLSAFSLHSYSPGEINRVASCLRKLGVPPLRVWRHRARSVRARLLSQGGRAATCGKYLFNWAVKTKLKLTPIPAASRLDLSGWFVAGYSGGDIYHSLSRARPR
T2 sequence (P27958 2421-2990): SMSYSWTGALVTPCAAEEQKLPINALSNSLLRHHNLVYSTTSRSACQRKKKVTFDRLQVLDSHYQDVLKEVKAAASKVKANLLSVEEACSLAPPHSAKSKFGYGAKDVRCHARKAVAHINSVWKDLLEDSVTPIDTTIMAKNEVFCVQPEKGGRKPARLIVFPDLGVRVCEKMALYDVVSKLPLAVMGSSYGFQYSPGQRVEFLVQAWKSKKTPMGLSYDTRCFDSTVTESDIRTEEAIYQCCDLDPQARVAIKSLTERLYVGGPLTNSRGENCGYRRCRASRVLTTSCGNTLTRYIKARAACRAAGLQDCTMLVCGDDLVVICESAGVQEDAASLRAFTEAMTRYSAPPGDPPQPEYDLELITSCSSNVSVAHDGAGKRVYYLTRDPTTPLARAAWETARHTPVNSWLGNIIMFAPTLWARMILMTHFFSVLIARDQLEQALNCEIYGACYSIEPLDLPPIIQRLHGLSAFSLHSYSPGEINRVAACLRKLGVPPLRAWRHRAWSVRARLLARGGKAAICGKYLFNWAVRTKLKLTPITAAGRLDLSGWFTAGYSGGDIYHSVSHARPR

Consider `CS(=O)(=O)N(CCCF)c1cc2oc(-c3ccc(F)cc3)c(-c3ncc[nH]3)c2cc1C1CC1` [Example 85, N-[5-cyclopropyl-2-(4-fluorophenyl)-3-(1H-imidazol-2-yl)-1-benzofuran-6-yl]-N-(3-fluoropropyl)methanesulfonamide], for which the EC50 is 0.095 µM in [1] (setting [11]); 0.0098 µM in assay [1] (setting [12]); 0.0098 µM in [1] (setting [13]); 0.0218 µM in assay [2] (setting [14]); 0.162 µM in [2] (setting [15]); 0.0218 µM in [2] (setting [16]). Also, the EC50 came to 0.0218 µM in [2] (setting [17]); 0.0064 µM in assay [6]; 0.0662 µM in assay [7]; 0.131 µM in assay [9]; 0.0738 µM in assay [10]. The IC50 in assay [3] worked out at 0.088 µM; in assay [5] it was 0.0045 µM; in assay [8], 0.018 µM. Moreover, the “C316Y/1a Fold Resistance” value in assay [4] is listed as 20 fold.

`CS(=O)(=O)NCCCN(c1cc2oc(-c3ccc(F)cc3)c(-c3ncc[nH]3)c2cc1C1CC1)S(C)(=O)=O` [Example 95, N-[5-cyclopropyl-2-(4-fluorophenyl)-3-(1H-imidazol-2-yl)-1-benzofuran-6-yl]-N-{3-[(methylsulfonyl)amino]propyl}methanesulfonamide]: the EC50 in assay [1] (setting [11]) was found to be 0.0761 µM; in [1] (setting [12]) it was 0.0048 µM; in [1] (setting [13]), 0.0048 µM; in assay [2] (setting [14]), 0.0112 µM; in assay [2] (setting [15]) it was 0.121 µM; in [2] (setting [16]), 0.0112 µM. Further, the EC50 in assay [2] (setting [17]) was found to be 0.0112 µM; in assay [6], 0.0057 µM; in [7] it was 0.0331 µM; in assay [9] it was 0.0808 µM; in assay [10] it was 0.0461 µM. For the same compound, the IC50 in [3] worked out at 0.085 µM; in assay [5] it was 0.0045 µM; in assay [8], 0.013 µM. In addition, the “C316Y/1a Fold Resistance” value in assay [4] worked out at 19 fold.

For the compound `CN(C)C(=O)CCCN(c1cc2oc(-c3ccc(F)cc3)c(-c3ncc[nH]3)c2cc1C1CC1)S(C)(=O)=O` [Example 102, 4-{[5-cyclopropyl-2-(4-fluorophenyl)-3-(1H-imidazol-2-yl)-1-benzofuran-6-yl](methylsulfonyl)amino}-N,N-dimethylbutanamide], the EC50 was 0.066 µM in assay [1] (setting [11]); 0.01 µM in assay [1] (setting [12]); 0.01 µM in assay [1] (setting [13]); 0.0241 µM in [2] (setting [14]); 0.242 µM in assay [2] (setting [15]); 0.0241 µM in assay [2] (setting [16]). The EC50 in [2] (setting [17]) turned out to be 0.0241 µM; in assay [6], 0.0097 µM; in assay [7] it was 0.108 µM; in assay [9], 0.134 µM; in assay [10], 0.145 µM. For the same compound, the IC50 in [3] came out at 0.168 µM; in [5], 0.0077 µM; in [8] it was 0.047 µM. Moreover, the “C316Y/1a Fold Resistance” value in assay [4] is 22 fold.

Take `CNC(=O)CCCN(c1cc2oc(-c3ccc(F)cc3)c(-c3ncc[nH]3)c2cc1C1CC1)S(C)(=O)=O` [Example 107, 4-{[5-cyclopropyl-2-(4-fluorophenyl)-3-(1H-imidazol-2-yl)-1-benzofuran-6-yl](methylsulfonyl)amino}-N-methylbutanamide]: the EC50 in [1] (setting [11]) came to 0.066 µM; in [1] (setting [12]), 0.011 µM; in assay [1] (setting [13]) it was 0.011 µM; in [2] (setting [14]), 0.0175 µM; in assay [2] (setting [15]), 0.082 µM; in assay [2] (setting [16]), 0.0175 µM. Further, the EC50 in assay [2] (setting [17]) was determined as 0.0175 µM; in assay [6], 0.0093 µM; in assay [7], 0.135 µM; in assay [9], 0.141 µM; in assay [10], 0.129 µM. For the same compound, the IC50 was determined as 0.122 µM in assay [3], 0.0055 µM in [5] and 0.028 µM in [8]. For the same compound, the “C316Y/1a Fold Resistance” value in assay [4] was 22 fold.

Take `[2H]C([2H])(CCCCC)N(c1cc2oc(-c3ccc(F)cc3)c(-c3ncc[nH]3)c2cc1C1CC1)S(C)(=O)=O` [Example 113, N-[5-cyclopropyl-2-(4-fluorophenyl)-3-(1H-imidazol-2-yl)-1-benzofuran-6-yl]-N-[(1,1-^2H2)hexyl]methanesulfonamide]: the EC50 was 0.549 µM in assay [1] (setting [11]); 0.028 µM in [1] (setting [12]); 0.028 µM in [1] (setting [13]); 0.0599 µM in assay [2] (setting [14]); 0.646 µM in assay [2] (setting [15]); 0.0599 µM in assay [2] (setting [16]). In addition, the EC50 in assay [2] (setting [17]) is 0.0599 µM; in assay [6], 0.041 µM; in [7], 0.209 µM; in assay [9], 0.279 µM; in [10] it was 0.144 µM. The figures for the IC50 in [3], in [5] and in [8] were 0.14 µM, 0.0065 µM and 0.016 µM, respectively. Besides, the “C316Y/1a Fold Resistance” value in assay [4] came out at 22 fold.

Consider `CCOP(=O)(CCCN(c1cc2oc(-c3ccc(F)cc3)c(C3=NOCCN3)c2cc1C1CC1)S(C)(=O)=O)OCC` [Example 116, diethyl (3-{[5-cyclopropyl-3-(5,6-dihydro-4H-1,2,4-oxadiazin-3-yl)-2-(4-fluorophenyl)-1-benzofuran-6-yl](methylsulfonyl)amino}propyl)phosphonate], for which the EC50 in assay [1] (setting [11]) is 0.213 µM; in assay [1] (setting [12]) it was 0.032 µM; in assay [1] (setting [13]), 0.032 µM; in assay [2] (setting [14]) it was 0.0359 µM; in assay [2] (setting [15]), 0.157 µM; in assay [2] (setting [16]), 0.0359 µM. Moreover, the EC50 in assay [2] (setting [17]) is 0.0359 µM; in [6] it was 0.084 µM; in [7], 0.535 µM; in [9], 0.396 µM; in assay [10], 0.247 µM. For the same compound, the results for the IC50 in assay [3], in assay [5] and in assay [8] were 0.063 µM, 0.0075 µM and 0.035 µM, respectively. Besides, in [4], the “C316Y/1a Fold Resistance” value amounted to 8 fold.

Take `CS(=O)(=O)N(CCCC(F)(F)F)c1cc2oc(-c3ccc(F)cc3)c(C3=NOCCN3)c2cc1C1CC1` [Example 117, N-[5-cyclopropyl-3-(5,6-dihydro-4H-1,2,4-oxadiazin-3-yl)-2-(4-fluorophenyl)-1-benzofuran-6-yl]-N-(4,4,4-trifluorobutyl)methanesulfonamide]: the EC50 in assay [1] (setting [11]) came out at 0.245 µM; in assay [1] (setting [12]), 0.03 µM; in [1] (setting [13]), 0.03 µM; in assay [2] (setting [14]), 0.022 µM; in [2] (setting [15]), 0.159 µM; in [2] (setting [16]), 0.022 µM. Also, the EC50 in assay [2] (setting [17]) is 0.022 µM; in assay [6], 0.031 µM; in [7], 0.214 µM; in [9], 0.24 µM; in assay [10], 0.233 µM. For the same compound, the IC50 in assay [3] was 0.036 µM; in [5], 0.0045 µM; in assay [8] it was 0.031 µM. Moreover, the “C316Y/1a Fold Resistance” value in assay [4] was determined as 8 fold.

For `CS(=O)(=O)N(CCC(F)(F)F)c1cc2oc(-c3ccc(F)cc3)c(C3=NOCCN3)c2cc1C1CC1` [Example 118, N-[5-cyclopropyl-3-(5,6-dihydro-4H-1,2,4-oxadiazin-3-yl)-2-(4-fluorophenyl)-1-benzofuran-6-yl]-N-(3,3,3-trifluoropropyl)methanesulfonamide], the EC50 was found to be 0.253 µM in assay [1] (setting [11]); 0.026 µM in assay [1] (setting [12]); 0.026 µM in assay [1] (setting [13]); 0.0198 µM in assay [2] (setting [14]); 0.165 µM in assay [2] (setting [15]); 0.0198 µM in assay [2] (setting [16]). Moreover, the EC50 in [2] (setting [17]) is 0.0198 µM; in assay [6], 0.047 µM; in [7], 0.23 µM; in assay [9], 0.477 µM; in assay [10], 0.449 µM. Further, the IC50 in assay [3] was found to be 0.114 µM; in assay [5], 0.0059 µM; in assay [8], 0.049 µM. For the same compound, the “C316Y/1a Fold Resistance” value in [4] is reported as 19 fold.
